Measured values taken from EP4060021A1, “MIMETIC MICROBIOLOGICAL CULTURE MEDIUM AND USES THEREOF” (BIOFILM PHARMA, priority 2021, dated 2022).

Tested on: S. aureus
Experiment: Clinical outcome of the prescribed antibiotic therapy (presence/absence of S. aureus in a second sample at end of first-line treatment)
Format: in vivo, patients diabétiques
From the text: • La Figure 1 représente des courbes de croissance de bactéries en fonction du milieu de culture. Sur cette figure, les ordonnées correspondent au logarithme d'unités formant colonie par millilitre de milieu de culture (Log UFC/ml) et les abscisses, au temps en heure (H). La Figure 1A représente les courbes correspondant à la croissance de 2 souches de S. aureus, Newman (gauche) et SAC1 (droite), dans le milieu BHI (courbe avec indicateurs ronds) et un exemple de milieu selon l'invention (MP) (courbe avec indicateurs carrés). La Figure 1B représente les courbes correspondant à la croissance de 2 souches de P. aeruginosa, PAO1 (gauche) et PAC1 (droite), dans le milieu BHI (courbe avec indicateurs ronds) et un exemple de milieu selon l'invention (MP) (courbe avec indicateurs carrés). La Figure 1C représente les courbes correspondant à la croissance de 2 souches cliniques S. aureus SAC1 et P. aeruginosa PAC1, en coculture dans le milieu BHI (P. aeruginosa BHI ou S. aureus BHI) et un exemple de milieu selon l'invention (MP) (P. aeruginosa MP ou S. aureus MP). La mesure de différence significative, réalisée par le test de Student, entre les valeurs d'UFC/mL est exprimée, soit par (***) qui correspond à une p-value <0,001, soit par (**) qui correspond à une p-value <0,01. • La Figure 2 représente les résultats obtenus d'une détermination de l'adhésion et de la formation de biofilm par dénombrement à 24h. Sur cette figure, les ordonnées correspondent au logarithme d'unités formant colonie par millilitre de milieu de culture (Log UFC/ml). La Figure 2A représente un histogramme ou diagramme en bâton du nombre de bactéries dénombrées suite à des cultures séparées de souche S. aureus Newman (Newman), S. aureus SAC1 (SAC 1), P. aeruginosa PAO1 (PAO1) ou P. aeruginosa PAC1 (PAC1), pendant 24H dans un milieu BHI (BHI) (bâtons noirs) ou dans un exemple de milieu selon l'invention (MP) (bâtons gris). La Figure 2B montre sous forme d'histogramme le nombre de bactéries dénombrées suite à des co-cultures des souches de référence S. aureus Newman et P. aeruginosa PAO1 (PAO1/Newman), ainsi que du couple de souches cliniques S. aureus SAC1 et P. aeruginosa PAC1 (PAC 1/SAC1), pendant 24H dans un milieu BHI (BHI) (bâtons noirs) ou dans un exemple de milieu selon l'invention (MP) (bâtons gris). La mesure de différence significative, réalisée par le test de Student, entre les valeurs d'UFC est exprimée, soit par (***) qui correspond à une p-value <0,001, soit par (**) qui correspond à une p-value <0,01. • La Figure 3 représente les résultats obtenus d'une détermination de sensibilité à des antibiotiques de souches cliniques de S. aureus issues d'infections de plaies du pied chez le diabétique. Les données cliniques, anonymisées, nécessaires à l'interprétation des résultats, consistaient en l'antibiothérapie donnée au patient, ainsi que la qualification par les médecins hospitaliers d'un succès ou échec thérapeutique. La définition de succès ou échec thérapeutique est définie comme suit. Le patient commence et suit l'antibiothérapie prescrite et un deuxième prélèvement microbiologique est effectué lors du dernier jour de traitement de la 1ère antibiothérapie (± 2 jours). Ce prélèvement est utilisé pour déterminer la présence/absence du pathogène ciblé par l'antibiothérapie, S. aureus. Si ce prélèvement a montré la persistance d'un S. aureus, l'antibiothérapie est en échec. A l'inverse, en cas d'absence de S. aureus, l'antibiothérapie est associée à un succès thérapeutique. Les antibiogrammes ont été réalisés classiquement sur une durée de 18h ± 2h en accord avec les recommandations de l'EUCAST. Une gamme de l'antibiotique à tester a été réalisée. • La Figure 3A montre sous forme d'histogramme les résultats des CMI déduites d'antibiogrammes sur 11 souches testées en présence d'amoxicilline / clavulanate de potassium (commercialisé par exemple sous le nom d'Augmentin (marque déposée)). […]

With cotrimoxazole the “Succès ou échec thérapeutique” value (souche C01P0 01) was “Echec”, the “Succès ou échec thérapeutique” value (souche C01P0 11) was “Succès” and the “Succès ou échec thérapeutique” value (souche C03P0 02) was “Echec”. The “Succès ou échec thérapeutique” value (souche C03P0 07) was “Echec”.
In the case of CCC[C@@H]1C[C@@H](C(=O)N[C@@H]([C@H]2O[C@H](SC)[C@H](O)[C@@H](O)[C@H]2O)[C@H](C)Cl)N(C)C1 [clindamycine], the “Succès ou échec thérapeutique” value (souche C01P009) is reported as “Succès”, the “Succès ou échec thérapeutique” value (souche C01P010) is reported as “Echec” and the “Succès ou échec thérapeutique” value (souche C03P003) is reported as “Succès”. The “Succès ou échec thérapeutique” value (souche C03P004) was “Succès”, the “Succès ou échec thérapeutique” value (souche C03P005) was “Echec” and the “Succès ou échec thérapeutique” value (souche C03P009) was “Succès”.
For “amoxicilline / clavulanate de potassium [amoxicilline/clavulanate de potassium]”, the “Succès ou échec thérapeutique” value (souche C01P012) was “Succès”, the “Succès ou échec thérapeutique” value (souche C03P001) was “Succès” and the “Succès ou échec thérapeutique” value (souche C03P008) was “Echec”. For the same compound, the “Succès ou échec thérapeutique” value (souche C04P003) was “Succès”, the “Succès ou échec thérapeutique” value (souche C04P005f) was “Succès” and the “Succès ou échec thérapeutique” value (souche C04P005i) was “Succès”. The “Succès ou échec thérapeutique” value (souche C04P007) was “Echec”, the “Succès ou échec thérapeutique” value (souche C06P001f) was “Echec” and the “Succès ou échec thérapeutique” value (souche C06P001 i) was “Echec”. The “Succès ou échec thérapeutique” value (souche C06P003f) was “Echec” and the “Succès ou échec thérapeutique” value (souche C06P003i) was “Echec”.
